The values below come from ChEMBL document CHEMBL3046822, “Synthesis, antiplatelet aggregation activity, and molecular modeling study of novel substituted-piperazine analogues” (2011).

Test [1] is described as follows: Antiaggregating activity in Homo sapiens (human) platelet rich plasma assessed as ristocetin-induced platelet aggregation at 0.125 uM incubated for 4 min prior to ristocetin-induction measured for 5.5 min by turbidometric analysis (reference value: 65 to 99%). Format: functional.
Test [2] concerns Platelet. The test is described as follows: Antiaggregating activity in Homo sapiens (human) platelet rich plasma assessed as inhibition of collagen-induced platelet aggregation at 0.5 uM incubated for 4 min prior to collagen-induction measured for 5.5 min by turbidometric analysis. Format: functional, cell-free.
Test [3] relates to Platelet. The test is described as follows: Antiaggregating activity in Homo sapiens (human) platelet rich plasma assessed as inhibition of adrenaline-induced platelet aggregation at 1 uM incubated for 4 min prior to adrenaline-induction measured for 5.5 min by turbidometric analysis. Format: functional, cell-free.
In test [4] the test system is Platelet. Nature of the test: Antiaggregating activity in Homo sapiens (human) platelet rich plasma assessed as inhibition of arachidonic acid-induced platelet aggregation at 1 uM incubated for 4 min prior to arachidonic acid-induction measured for 5.5 min by turbidometric analysis. Format: functional, cell-free.
The test system of test [5] is Platelet. Nature of the test: Antiaggregating activity in Homo sapiens (human) platelet rich plasma assessed as inhibition of ADP-induced platelet aggregation at 1 uM incubated for 4 min prior to ADP-induction measured for 5.5 min by turbidometric analysis. Format: functional, cell-free.
Test [6] is described as follows: Antiaggregating activity in Homo sapiens (human) platelet rich plasma assessed as collagen-induced platelet aggregation at 0.25 uM incubated for 4 min prior to collagen-induction measured for 5.5 min by turbidometric analysis (reference value: 50 to 98%). Format: functional.
A short description of test [7]: Antiaggregating activity in Homo sapiens (human) platelet rich plasma assessed as ristocetin-induced platelet aggregation at 1 uM incubated for 4 min prior to ristocetin-induction measured for 5.5 min by turbidometric analysis (reference value: 65 to 99%). Format: functional.
The nature of test [8]: Antiaggregating activity in Homo sapiens (human) platelet rich plasma assessed as ristocetin-induced platelet aggregation at 0.25 uM incubated for 4 min prior to ristocetin-induction measured for 5.5 min by turbidometric analysis (reference value: 65 to 99%). Format: functional.
For test [9], the system named is Platelet. The test is described as follows: Antiaggregating activity in Homo sapiens (human) platelet rich plasma assessed as inhibition of arachidonic acid-induced platelet aggregation at 0.25 uM incubated for 4 min prior to arachidonic acid-induction measured for 5.5 min by turbidometric analysis. Format: functional, cell-free.
In test [10] the test system is Platelet. Nature of the test: Antiaggregating activity in Homo sapiens (human) platelet rich plasma assessed as inhibition of arachidonic acid-induced platelet aggregation at 0.5 uM incubated for 4 min prior to arachidonic acid-induction measured for 5.5 min by turbidometric analysis. Format: functional.
Test [11] can be described thus: Antiaggregating activity in Homo sapiens (human) platelet rich plasma assessed as collagen-induced platelet aggregation at 0.125 uM incubated for 4 min prior to collagen-induction measured for 5.5 min by turbidometric analysis (reference value: 50 to 98%). Format: functional.
The nature of test [12]: Antiaggregating activity in Homo sapiens (human) platelet rich plasma assessed as disaggregation of ADP-induced platelet aggregation at 0.5 uM incubated for 4 min prior to ADP-induction measured for 5.5 min by turbidometric analysis relative to control. Format: functional.
In test [13] the test system is Platelet. The test is described as follows: Antiaggregating activity in Homo sapiens (human) platelet rich plasma assessed as inhibition of collagen-induced platelet aggregation at 1 uM incubated for 4 min prior to collagen-induction measured for 5.5 min by turbidometric analysis. Format: functional, cell-free.
Test [14] is described as follows: Antiaggregating activity in Homo sapiens (human) platelet rich plasma assessed as ristocetin-induced platelet aggregation at 0.5 uM incubated for 4 min prior to ristocetin-induction measured for 5.5 min by turbidometric analysis (reference value: 65 to 99%). Format: functional.
The test system of test [15] is Platelet. Nature of the test: Antiaggregating activity in Homo sapiens (human) platelet rich plasma assessed as inhibition of adrenaline-induced platelet aggregation at 0.5 uM incubated for 4 min prior to adrenaline-induction measured for 5.5 min by turbidometric analysis. Format: functional, cell-free.
For test [16], the system named is Platelet. Nature of the test: Antiaggregating activity in Homo sapiens (human) platelet rich plasma assessed as inhibition of adrenaline-induced platelet aggregation at 0.125 uM incubated for 4 min prior to adrenaline-induction measured for 5.5 min by turbidometric analysis. Format: functional, cell-free.
For test [17], the system named is Platelet. The test is described as follows: Antiaggregating activity in Homo sapiens (human) platelet rich plasma assessed as inhibition of adrenaline-induced platelet aggregation at 0.25 uM incubated for 4 min prior to adrenaline-induction measured for 5.5 min by turbidometric analysis. Format: functional, cell-free.
A short description of test [18]: Antiaggregating activity in Homo sapiens (human) platelet rich plasma assessed as arachidonic acid-induced platelet aggregation at 0.125 uM incubated for 4 min prior to arachidonic acid-induction measured for 5.5 min by turbidometric analysis (reference value: 55 to 100%). Format: functional.
Test [19] can be described thus: Antiaggregating activity in Homo sapiens (human) platelet rich plasma assessed as ADP-induced platelet aggregation at 0.25 uM incubated for 4 min prior to ADP-induction measured for 5.5 min by turbidometric analysis (reference value: 54 to 88%). Format: functional.
Test [20] is described as follows: Antiaggregating activity in Homo sapiens (human) platelet rich plasma assessed as ADP-induced platelet aggregation at 0.125 uM incubated for 4 min prior to ADP-induction measured for 5.5 min by turbidometric analysis (reference value: 54 to 88%). Format: functional.
The subject of test [21] is Platelet. Nature of the test: Antiaggregating activity in Homo sapiens (human) platelet rich plasma assessed as inhibition of ADP-induced platelet aggregation at 0.5 uM incubated for 4 min prior to ADP-induction measured for 5.5 min by turbidometric analysis. Format: functional, cell-free.
The subject of test [22] is Platelet. Nature of the test: Antiaggregating activity in Homo sapiens (human) platelet rich plasma assessed as inhibition of collagen-induced platelet aggregation at 0.25 uM incubated for 4 min prior to collagen-induction measured for 5.5 min by turbidometric analysis. Format: functional.
Test [23] is described as follows: Antiaggregating activity in Homo sapiens (human) platelet rich plasma assessed as disaggregation of ADP-induced platelet aggregation at 0.125 uM incubated for 4 min prior to ADP-induction measured for 5.5 min by turbidometric analysis relative to control. Format: functional.
The test system of test [24] is Platelet. Nature of the test: Antiaggregating activity in Homo sapiens (human) platelet rich plasma assessed as inhibition of arachidonic acid-induced platelet aggregation at 0.125 uM incubated for 4 min prior to arachidonic acid-induction measured for 5.5 min by turbidometric analysis. Format: functional, cell-free.
Test [25] has as its system Platelet. The test is described as follows: Antiaggregating activity in Homo sapiens (human) platelet rich plasma assessed as inhibition of ADP-induced platelet aggregation at 0.25 uM incubated for 4 min prior to ADP-induction measured for 5.5 min by turbidometric analysis. Format: functional, cell-free.
Test [26] can be described thus: Antiaggregating activity in Homo sapiens (human) platelet rich plasma assessed as disaggregation of ristocetin-induced platelet aggregation at 0.25 uM incubated for 4 min prior to ristocetin-induction measured for 5.5 min by turbidometric analysis relative to control. Format: functional.
Test [27] concerns Platelet. Nature of the test: Antiaggregating activity in Homo sapiens (human) platelet rich plasma assessed as inhibition of collagen-induced platelet aggregation at 5 uM incubated for 4 min prior to collagen-induction measured for 5.5 min by turbidometric analysis. Format: functional, cell-free.
A short description of test [28]: Antiaggregating activity in Homo sapiens (human) platelet rich plasma assessed as ristocetin-induced platelet aggregation at 10 uM incubated for 4 min prior to ristocetin-induction measured for 5.5 min by turbidometric analysis (reference value: 65 to 99%). Format: functional.
Test [29] deals with Platelet. The test is described as follows: Antiaggregating activity in Homo sapiens (human) platelet rich plasma assessed as inhibition of arachidonic acid-induced platelet aggregation at 20 uM incubated for 4 min prior to arachidonic acid-induction measured for 5.5 min by turbidometric analysis. Format: functional, cell-free.
Test [30] can be described thus: Antiaggregating activity in Homo sapiens (human) platelet rich plasma assessed as ADP-induced platelet aggregation at 5 uM incubated for 4 min prior to ADP-induction measured for 5.5 min by turbidometric analysis (reference value: 54 to 88%). Format: functional.
Test [31] relates to Platelet. The test is described as follows: Antiaggregating activity in Homo sapiens (human) platelet rich plasma assessed as inhibition of adrenaline-induced platelet aggregation at 10 uM incubated for 4 min prior to adrenaline-induction measured for 5.5 min by turbidometric analysis. Format: functional, cell-free.
A short description of test [32]: Antiaggregating activity in Homo sapiens (human) platelet rich plasma assessed as ADP-induced platelet aggregation at 1 uM incubated for 4 min prior to ADP-induction measured for 5.5 min by turbidometric analysis (reference value: 54 to 88%). Format: functional.
Test [33] has as its system Platelet. Nature of the test: Antiaggregating activity in Homo sapiens (human) platelet rich plasma assessed as ADP-induced platelet aggregation at 20 uM incubated for 4 min prior to ADP-induction measured for 5.5 min by turbidometric analysis (reference value: 54 to 88%). Format: functional.
Test [34] has as its system Platelet. Nature of the test: Antiaggregating activity in Homo sapiens (human) platelet rich plasma assessed as inhibition of adrenaline-induced platelet aggregation at 20 uM incubated for 4 min prior to adrenaline-induction measured for 5.5 min by turbidometric analysis. Format: functional, cell-free.
Test [35] concerns Platelet. Nature of the test: Antiaggregating activity in Homo sapiens (human) platelet rich plasma assessed as inhibition of ADP-induced platelet aggregation at 10 uM incubated for 4 min prior to ADP-induction measured for 5.5 min by turbidometric analysis. Format: functional, cell-free.
Test [36] is described as follows: Antiaggregating activity in Homo sapiens (human) platelet rich plasma assessed as collagen-induced platelet aggregation at 1 uM incubated for 4 min prior to collagen-induction measured for 5.5 min by turbidometric analysis (reference value: 50 to 98%). Format: functional.
Test [37] relates to Platelet. Nature of the test: Antiaggregating activity in Homo sapiens (human) platelet rich plasma assessed as inhibition of collagen-induced platelet aggregation at 20 uM incubated for 4 min prior to collagen-induction measured for 5.5 min by turbidometric analysis. Format: functional, cell-free.
The nature of test [38]: Antiaggregating activity in Homo sapiens (human) platelet rich plasma assessed as ristocetin-induced platelet aggregation at 5 uM incubated for 4 min prior to ristocetin-induction measured for 5.5 min by turbidometric analysis (reference value: 65 to 99%). Format: functional.
The test system of test [39] is Platelet. Nature of the test: Antiaggregating activity in Homo sapiens (human) platelet rich plasma assessed as inhibition of arachidonic acid-induced platelet aggregation at 5 uM incubated for 4 min prior to arachidonic acid-induction measured for 5.5 min by turbidometric analysis. Format: functional, cell-free.
The nature of test [40]: Antiaggregating activity in Homo sapiens (human) platelet rich plasma assessed as arachidonic acid-induced platelet aggregation at 1 uM incubated for 4 min prior to arachidonic acid-induction measured for 5.5 min by turbidometric analysis (reference value: 55 to 100%). Format: functional.
The test system of test [41] is Platelet. The test is described as follows: Antiaggregating activity in Homo sapiens (human) platelet rich plasma assessed as inhibition of collagen-induced platelet aggregation at 10 uM incubated for 4 min prior to collagen-induction measured for 5.5 min by turbidometric analysis. Format: functional, cell-free.
In test [42] the test system is Platelet. Nature of the test: Antiaggregating activity in Homo sapiens (human) platelet rich plasma assessed as inhibition of arachidonic acid-induced platelet aggregation at 10 uM incubated for 4 min prior to arachidonic acid-induction measured for 5.5 min by turbidometric analysis. Format: functional, cell-free.
Test [43] has as its system Platelet. The test is described as follows: Antiaggregating activity in Homo sapiens (human) platelet rich plasma assessed as inhibition of ristocetin-induced platelet aggregation at 20 uM incubated for 4 min prior to ristocetin-induction measured for 5.5 min by turbidometric analysis. Format: functional, cell-free.
In test [44] the test system is Platelet. Nature of the test: Antiaggregating activity in Homo sapiens (human) platelet rich plasma assessed as inhibition of adrenaline-induced platelet aggregation at 5 uM incubated for 4 min prior to adrenaline-induction measured for 5.5 min by turbidometric analysis. Format: functional, cell-free.

Active and inactive are the calls of the source. No cut-off for these calls is given here.

Regarding `O=C(c1ccc[n+](Cc2ccc(Br)cc2)c1)N1CCN(c2ccccc2Cl)CC1.[Br-]`, the Activity in test [1] came out at 84%; in test [6] it was 77%; in [7] it was 69%; in test [8], 84%; in test [11], 67%; in test [12] it was 52%. Also, the Activity is listed as 78% in test [14], 68% in test [18], 74% in test [19] and 84% in [20]. Further, the inhibition result in the test on Platelet [2], in the test with Platelet [3], with Platelet [4], with Platelet [5], with Platelet [9] and with Platelet [10] was “Active” throughout. Further, the inhibition entry in the test with Platelet [13], with Platelet [15], in the test with Platelet [16] and in the test with Platelet [17] was “Active” each time.

Turning to `Cl.O=C(C1CCCN(Cc2ccc(F)cc2)C1)N1CCN(c2ccccc2Cl)CC1` (stereo not given), the Activity amounted to 100% in [1]; 40% in test [7]; 72% in test [11]; 80% in [23]; 67% in [14]; 68% in test [26]. Further, the inhibition entry with Platelet [2], with Platelet [3], in the test on Platelet [4], with Platelet [5], in the test with Platelet [21] and with Platelet [9] was “Active” each time. The inhibition entry in the test with Platelet [22], with Platelet [10], in the test with Platelet [13], with Platelet [15], in the test with Platelet [16] and in the test on Platelet [24] was “Active” throughout. In addition, the inhibition result with Platelet [17] and in the test on Platelet [25] was “Active” each time.

In the case of `O=C(c1ccc[n+](Cc2ccc(Br)cc2)c1)N1CCN(c2ncccn2)CC1.[Br-]`, the inhibition entry in the test with Platelet [27], in the test on Platelet [29], with Platelet [3], with Platelet [31], with Platelet [33] and in the test with Platelet [34] was “Active” each time. Also, the inhibition result in the test with Platelet [35], with Platelet [37], with Platelet [39], with Platelet [41], in the test on Platelet [42] and in the test with Platelet [43] was “Active” each time. The inhibition result with Platelet [44] is “Active”. The Activity amounted to 27% in test [28]; 64% in test [30]; 60% in test [32]; 60% in [7]; 64% in [36]; 43% in [38]. Moreover, the Activity in test [40] is reported as 52%.
